Experimental data published in ChEMBL document CHEMBL1201862, “PubChem BioAssay data set” (2004).
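Where inhibition never reached the appropriate level, the endpoint shown equals the highest concentration tested. Otherwise, values were interpolated linearly from a five-concentration, 48-hour dose response in 96-well plates. The concentration for 50% growth inhibition is given as GI50.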 Active and inactive are the calls of the source. Rule as the data show it: active = GI50 up to about 1.1 µM and inactive = higher.

Experiments:
Experiment in all cases: NCI anticancer screen, dose series, 48 h
ACHN = system: ACHN
CCRF-CEM = system: CCRF-CEM
HCT-116 = system: HCT-116
HOP-62 = system: HOP-62
Hs-578T = system: Hs-578T
K562 = system: K562
KM12 = system: KM12
MCF7 = system: MCF7
MDA-MB-435 = system: MDA-MB-435
NCI-H23 = system: NCI-H23
NCI/ADR-RES = system: NCI/ADR-RES
OVCAR-4 = system: OVCAR-4
PC-3 = system: PC-3
RXF 393 = system: RXF 393
SK-MEL-2 = system: SK-MEL-2
SK-MEL-5 = system: SK-MEL-5
SN12C = system: SN12C
SW-620 = system: SW-620
T47D = system: T47D
A498 = system: A498

Row | SMILES | GI50 (ACHN) | GI50 (CCRF-CEM) | GI50 (HCT-116) | GI50 (HOP-62) | GI50 (Hs-578T) | GI50 (K562) | GI50 (KM12) | GI50 (MCF7) | GI50 (MDA-MB-435) | GI50 (NCI-H23) | GI50 (NCI/ADR-RES) | GI50 (OVCAR-4) | GI50 (PC-3) | GI50 (RXF 393) | GI50 (SK-MEL-2) | GI50 (SK-MEL-5) | GI50 (SN12C) | GI50 (SW-620) | GI50 (T47D) | GI50 (A498)
1 | Brc1cccc(Nc2ncnc3sc4c(c23)CCC(Nc2cccc(Br)c2)C4)c1 (stereo not drawn) | > 100 µM (inactive) | > 100 µM (inactive) | > 100 µM (inactive) | > 100 µM (inactive) | > 100 µM (inactive) | > 100 µM (inactive) | > 100 µM (inactive) | 83.8 µM (inactive) | > 100 µM (inactive) | > 100 µM (inactive) | > 100 µM (inactive) | > 100 µM (inactive) | > 100 µM (inactive) | > 100 µM (inactive) | > 100 µM (inactive) | > 100 µM (inactive) | > 100 µM (inactive) | > 100 µM (inactive) | 6.55 µM (inactive) | –
2 | CCN1C(=O)c2cc(OC)c(OC)cc2C(=O)C12OC(=O)c1cc3c(cc12)OCO3 (stereo not drawn) | > 100 µM (inactive) | 35.6 µM (inactive) | 33.1 µM (inactive) | 49.4 µM (inactive) | 36.8 µM (inactive) | > 100 µM (inactive) | > 100 µM (inactive) | 78.9 µM (inactive) | > 100 µM (inactive) | > 100 µM (inactive) | > 100 µM (inactive) | 69.8 µM (inactive) | > 100 µM (inactive) | 25.8 µM (inactive) | 20.2 µM (inactive) | 85.9 µM (inactive) | 61.5 µM (inactive) | > 100 µM (inactive) | – | > 100 µM (inactive)
3 | CCOC(=O)/C(=C/c1cn(C(C)=O)c2ccccc12)P(=O)(OC)OC | 31.4 µM (inactive) | 30 µM (inactive) | 30.8 µM (inactive) | 63.4 µM (inactive) | 31 µM (inactive) | 25.6 µM (inactive) | – | < 0.01 µM (active) | 36.4 µM (inactive) | 33.8 µM (inactive) | 29.2 µM (inactive) | 33.4 µM (inactive) | 25.9 µM (inactive) | – | 31.1 µM (inactive) | 23.1 µM (inactive) | 31.6 µM (inactive) | 41.8 µM (inactive) | 13.7 µM (inactive) | 15.3 µM (inactive)
4 | O=C(O)/C(=C\c1ccncc1)c1cccc2ccccc12 | – | > 100 µM (inactive) | > 100 µM (inactive) | > 100 µM (inactive) | > 100 µM (inactive) | > 100 µM (inactive) | > 100 µM (inactive) | – | > 100 µM (inactive) | > 100 µM (inactive) | > 100 µM (inactive) | > 100 µM (inactive) | > 100 µM (inactive) | > 100 µM (inactive) | > 100 µM (inactive) | > 100 µM (inactive) | 44.1 µM (inactive) | > 100 µM (inactive) | > 100 µM (inactive) | –
5 | Cc1cc2oc3c(ccc(=O)n3C)c(=O)c2c(C)c1Cl | 57.4 µM (inactive) | 38.1 µM (inactive) | 34.9 µM (inactive) | 49.7 µM (inactive) | 32 µM (inactive) | 41.9 µM (inactive) | 91.4 µM (inactive) | – | 28.1 µM (inactive) | 44.6 µM (inactive) | 72.9 µM (inactive) | > 100 µM (inactive) | 37.4 µM (inactive) | 31.2 µM (inactive) | 40.6 µM (inactive) | 29 µM (inactive) | 48.6 µM (inactive) | 82.6 µM (inactive) | 50.1 µM (inactive) | 46.8 µM (inactive)
6 | O=C(O)c1ccccc1/C=C1\Cc2ccc3c(c2C1=O)CCCC3 | 36.5 µM (inactive) | 30.4 µM (inactive) | 30.1 µM (inactive) | 49.7 µM (inactive) | 34.1 µM (inactive) | 38 µM (inactive) | 39.8 µM (inactive) | 48.3 µM (inactive) | 44.7 µM (inactive) | 26.1 µM (inactive) | 32.1 µM (inactive) | 41.6 µM (inactive) | – | 30.5 µM (inactive) | 31.3 µM (inactive) | 15.9 µM (inactive) | 26.2 µM (inactive) | 30.8 µM (inactive) | 19.6 µM (inactive) | 30.8 µM (inactive)
7 | COc1cc(CCC(=O)O)c2cc3ccccc3cc2c1O | 17.3 µM (inactive) | 3.22 µM (inactive) | 17.2 µM (inactive) | 17.6 µM (inactive) | 39.6 µM (inactive) | 20.8 µM (inactive) | 20.5 µM (inactive) | 16.4 µM (inactive) | 15.3 µM (inactive) | 19.1 µM (inactive) | 25.6 µM (inactive) | 15.6 µM (inactive) | 18.5 µM (inactive) | – | 18.3 µM (inactive) | 15.1 µM (inactive) | 17.8 µM (inactive) | 21.4 µM (inactive) | 14.6 µM (inactive) | 33.6 µM (inactive)
8 | CCOC1CC(=O)c2c(Br)sc(Br)c21 (stereo not drawn) | 19.7 µM (inactive) | 7.31 µM (inactive) | 21.2 µM (inactive) | 18.5 µM (inactive) | 37.8 µM (inactive) | 17.3 µM (inactive) | 19.3 µM (inactive) | 21.2 µM (inactive) | 17.5 µM (inactive) | 17.9 µM (inactive) | 37.6 µM (inactive) | – | 20.8 µM (inactive) | 18.5 µM (inactive) | 17.5 µM (inactive) | 30.8 µM (inactive) | 24.9 µM (inactive) | 20 µM (inactive) | 19.9 µM (inactive) | 32.4 µM (inactive)
9 | O=c1[nH]nc(Cn2c3ccc(Br)cc3c3nc4ccccc4nc32)n1C1CCCCC1 | > 100 µM (inactive) | – | 70.1 µM (inactive) | 17.7 µM (inactive) | – | 20.7 µM (inactive) | 54 µM (inactive) | 43.7 µM (inactive) | 28.1 µM (inactive) | 12.9 µM (inactive) | > 100 µM (inactive) | 18.6 µM (inactive) | 16.2 µM (inactive) | 23.8 µM (inactive) | 60.7 µM (inactive) | 36.9 µM (inactive) | > 100 µM (inactive) | 52.7 µM (inactive) | 57.9 µM (inactive) | 32.3 µM (inactive)
10 | C=CS(=O)(=O)CCN1CC1 | > 10 µM (inactive) | > 10 µM (inactive) | > 10 µM (inactive) | > 10 µM (inactive) | > 10 µM (inactive) | > 10 µM (inactive) | > 10 µM (inactive) | > 10 µM (inactive) | > 10 µM (inactive) | > 10 µM (inactive) | > 10 µM (inactive) | > 10 µM (inactive) | > 10 µM (inactive) | – | – | > 10 µM (inactive) | > 10 µM (inactive) | > 10 µM (inactive) | > 10 µM (inactive) | –
11 | Cc1ccc(S(=O)(=O)n2cncc2CO)cc1 | > 100 µM (inactive) | > 100 µM (inactive) | > 100 µM (inactive) | > 100 µM (inactive) | > 100 µM (inactive) | > 100 µM (inactive) | > 100 µM (inactive) | > 100 µM (inactive) | > 100 µM (inactive) | > 100 µM (inactive) | > 100 µM (inactive) | > 100 µM (inactive) | > 100 µM (inactive) | > 100 µM (inactive) | > 100 µM (inactive) | > 100 µM (inactive) | > 100 µM (inactive) | > 100 µM (inactive) | > 100 µM (inactive) | –
12 | O=C(O)c1cc(CCc2ccc(O)c(O)c2)ccc1O | > 100 µM (inactive) | > 100 µM (inactive) | > 100 µM (inactive) | > 100 µM (inactive) | > 100 µM (inactive) | 21.3 µM (inactive) | > 100 µM (inactive) | > 100 µM (inactive) | > 100 µM (inactive) | > 100 µM (inactive) | > 100 µM (inactive) | – | > 100 µM (inactive) | – | > 100 µM (inactive) | > 100 µM (inactive) | > 100 µM (inactive) | > 100 µM (inactive) | > 100 µM (inactive) | > 100 µM (inactive)
13 | OCc1cn(C(c2ccccc2)(c2ccccc2)c2ccccc2)cn1 | 72.4 µM (inactive) | > 100 µM (inactive) | > 100 µM (inactive) | 44.5 µM (inactive) | 33.7 µM (inactive) | > 100 µM (inactive) | – | – | > 100 µM (inactive) | > 100 µM (inactive) | > 100 µM (inactive) | > 100 µM (inactive) | 27.5 µM (inactive) | – | > 100 µM (inactive) | > 100 µM (inactive) | > 100 µM (inactive) | > 100 µM (inactive) | > 100 µM (inactive) | –
14 | Cc1ccc(S(=O)(=O)N2CCCSCC2)cc1 | > 100 µM (inactive) | > 100 µM (inactive) | > 100 µM (inactive) | – | 72.4 µM (inactive) | > 100 µM (inactive) | > 100 µM (inactive) | > 100 µM (inactive) | 95.7 µM (inactive) | > 100 µM (inactive) | > 100 µM (inactive) | > 100 µM (inactive) | > 100 µM (inactive) | 62.7 µM (inactive) | – | > 100 µM (inactive) | > 100 µM (inactive) | > 100 µM (inactive) | > 100 µM (inactive) | > 100 µM (inactive)
15 | CCOc1c(/N=N/c2ccccc2Cl)c(-c2ccccc2)nn1C(=S)S | 48.1 µM (inactive) | – | 28 µM (inactive) | > 100 µM (inactive) | 22.2 µM (inactive) | 19 µM (inactive) | 33 µM (inactive) | 37.8 µM (inactive) | 29 µM (inactive) | 30.3 µM (inactive) | 33.8 µM (inactive) | 48.4 µM (inactive) | 48.2 µM (inactive) | 39.9 µM (inactive) | 34.8 µM (inactive) | 21.2 µM (inactive) | 9.06 µM (inactive) | 46.6 µM (inactive) | 22.2 µM (inactive) | –
